The values below are quoted from earlier work in patent publication US20080004295A1, “NOVEL COMPOUNDS” (priority 2005, published 2008).

For data set [1] the following is noted: phase II clinical trial, allergic rhinitis.
The next data set concerns PGD2. The note with it: dosed intranasally, phase I/II study, allergic rhinitis.

For the compound `Oc1cccc(Nc2ncc(F)c(Nc3cccc(O)c3)n2)c1` [Example R112], the efficacy versus placebo result in data set [1] is on record as “lack of efficacy”. Further, in the data set with PGD2, the “change in PGD2” value was “statistically significant decrease” and the “safety across a range of indicators” value is listed as “safe”.
